{"source": "paper doi:10.1101/2020.10.11.335026v1", "about": "“Acquisition of a type 3 secretion signal in an housekeeping enzyme shaped glycogen metabolism in Chlamydia” (biorxiv, 2020)", "assay_type_in_all_cases": "biochemical", "key": {"CpsG (HIS-CpsG) [1]": {"target": "T1, CpsG (HIS-CpsG) (Escherichia coli, UniProt P24175)", "T1 construct": "gene manB; His-tagged, recombinant from E. coli BL21(DE3), Ni-NTA and size exclusion; tag terminus printed as C-terminal in Methods", "T1 sequence (P24175 1-456)": "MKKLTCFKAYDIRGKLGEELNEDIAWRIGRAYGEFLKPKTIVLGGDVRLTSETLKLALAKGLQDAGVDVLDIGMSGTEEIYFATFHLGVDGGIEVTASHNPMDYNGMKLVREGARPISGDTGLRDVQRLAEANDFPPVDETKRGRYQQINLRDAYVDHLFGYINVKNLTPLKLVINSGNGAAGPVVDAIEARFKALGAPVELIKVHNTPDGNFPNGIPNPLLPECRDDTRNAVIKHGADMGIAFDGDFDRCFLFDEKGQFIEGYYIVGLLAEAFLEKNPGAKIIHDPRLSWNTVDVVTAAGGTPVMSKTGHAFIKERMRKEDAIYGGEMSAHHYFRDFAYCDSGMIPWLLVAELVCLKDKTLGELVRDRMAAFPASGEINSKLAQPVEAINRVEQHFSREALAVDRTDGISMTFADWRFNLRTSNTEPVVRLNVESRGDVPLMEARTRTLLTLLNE", "assay": "Glc1P conversion with and without cofactor by HPAEC-PAD", "details": "0.2 mg/mL Glc1,6diP, 0.66 mg/ml Glc1P, 10 mM Tris-HCl pH 8.0, 37 °C, 20 min"}, "CpsG (HIS-CpsG) [2]": {"target": "T1, CpsG (HIS-CpsG)", "assay": "conversion to Glc6P by HPAEC-PAD", "details": "0.66 mg/ml Glc1P, 0.1 mg/mL enzyme, 0.2 mg/mL Glc1,6diP, 10 mM Tris-HCl pH 8.0, 37 °C, 20 min"}, "CCA00034 (HIS-CCA00034) [3]": {"target": "T2, CCA00034 (HIS-CCA00034) (Chlamydia caviae, UniProt Q823R2)", "T2 construct": "gene CCA_00344; His-tagged, recombinant from E. coli BL21(DE3), Ni-NTA and size exclusion; tag printed as amino-terminal in Results but C-terminal in Methods; tag not reported cut", "T2 sequence (Q823R2 entry or part of it)": "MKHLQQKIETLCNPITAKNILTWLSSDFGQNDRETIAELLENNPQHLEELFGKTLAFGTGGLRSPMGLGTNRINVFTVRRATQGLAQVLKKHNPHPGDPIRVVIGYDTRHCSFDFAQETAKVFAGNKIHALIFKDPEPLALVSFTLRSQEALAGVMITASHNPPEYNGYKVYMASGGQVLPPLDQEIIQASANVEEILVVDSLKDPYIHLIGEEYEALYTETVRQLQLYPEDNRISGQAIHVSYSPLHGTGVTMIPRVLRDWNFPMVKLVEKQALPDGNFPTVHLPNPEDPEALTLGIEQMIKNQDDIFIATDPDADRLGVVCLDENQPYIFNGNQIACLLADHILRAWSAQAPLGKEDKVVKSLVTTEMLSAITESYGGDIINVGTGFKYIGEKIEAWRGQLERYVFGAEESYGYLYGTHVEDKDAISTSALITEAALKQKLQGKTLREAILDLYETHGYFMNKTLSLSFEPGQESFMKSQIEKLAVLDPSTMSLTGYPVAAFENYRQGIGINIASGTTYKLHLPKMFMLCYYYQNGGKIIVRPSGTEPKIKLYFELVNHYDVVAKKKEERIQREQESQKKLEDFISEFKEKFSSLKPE", "assay": "conversion to Glc6P by HPAEC-PAD", "details": "0.66 mg/ml Glc1P, 0.1 mg/mL enzyme, 0.2 mg/mL Glc1,6diP (not required), 10 mM Tris-HCl pH 8.0, 37 °C, 20 min"}, "CT815 (HIS-CT815)": {"target": "T3, CT815 (HIS-CT815) (Chlamydia trachomatis, UniProt B0B944)", "T3 construct": "gene glmM; His-tagged, in pET28a, recombinant from E. coli BL21(DE3), Ni-NTA and size exclusion; tag printed as amino-terminal in Results but C-terminal in Methods", "T3 sequence (B0B944 whole entry)": "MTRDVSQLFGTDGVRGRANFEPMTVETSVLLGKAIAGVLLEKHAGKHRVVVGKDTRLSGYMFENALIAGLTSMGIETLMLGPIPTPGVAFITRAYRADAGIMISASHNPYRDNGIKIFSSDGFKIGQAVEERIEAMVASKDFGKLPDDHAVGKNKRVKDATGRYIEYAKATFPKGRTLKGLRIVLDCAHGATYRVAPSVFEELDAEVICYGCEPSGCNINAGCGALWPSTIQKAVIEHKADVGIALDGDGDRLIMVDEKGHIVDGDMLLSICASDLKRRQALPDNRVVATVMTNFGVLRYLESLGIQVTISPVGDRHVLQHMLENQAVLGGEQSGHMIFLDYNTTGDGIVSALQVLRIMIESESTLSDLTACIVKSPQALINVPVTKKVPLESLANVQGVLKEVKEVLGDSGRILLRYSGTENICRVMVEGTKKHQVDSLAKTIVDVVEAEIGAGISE", "assay": "conversion to Glc6P by HPAEC-PAD", "details": "0.66 mg/ml Glc1P, 0.1 mg/mL enzyme, 0.2 mg/mL Glc1,6diP, 10 mM Tris-HCl pH 8.0, 37 °C, 20 min"}, "CCA00034 (HIS-CCA00034) [4]": {"target": "T2, CCA00034 (HIS-CCA00034)", "assay": "reverse reaction to Glc1P by HPAEC-PAD", "details": "0.33 mg/ml Glc6P, 0.1 mg/mL enzyme, 0.2 mg/mL Glc1,6diP, 10 mM Tris-HCl pH 8.0, 37 °C, 20 min"}}}
{"smiles": "O=P(O)(O)OC[C@H]1O[C@H](OP(=O)(O)O)[C@H](O)[C@@H](O)[C@@H]1O", "note": "[Glc1,6diP]", "values": [{"measurement": "Glc1P conversion with and without cofactor by HPAEC-PAD", "setting": "CpsG (HIS-CpsG) [1]", "result": "CpsG required the presence of Glc1,6diP for optimal conversion of Glc1P into Glc6P"}]}
{"smiles": "O=P(O)(O)O[C@H]1O[C@H](CO)[C@@H](O)[C@H](O)[C@H]1O", "note": "[Glc1P]", "values": [{"measurement": "conversion to Glc6P by HPAEC-PAD", "setting": "CpsG (HIS-CpsG) [2]", "result": "HIS-CpsG required the presence of Glc1,6diP to convert Glc1P into Glc6P"}, {"measurement": "conversion to Glc6P by HPAEC-PAD", "setting": "CCA00034 (HIS-CCA00034) [3]", "result": "Incubation of Glc1P in the presence of HIS-CCA00034 led to its full conversion into Glc6P"}, {"measurement": "conversion to Glc6P by HPAEC-PAD", "setting": "CT815 (HIS-CT815)", "result": "only low levels of Glc6P were detected in the presence of HIS-CT815"}]}
{"smiles": "O=P(O)(O)OC[C@H]1OC(O)[C@H](O)[C@@H](O)[C@@H]1O", "note": "(some centres unmarked) [Glc6P]", "values": [{"measurement": "reverse reaction to Glc1P by HPAEC-PAD", "setting": "CCA00034 (HIS-CCA00034) [4]", "result": "very low amounts of Glc1P were detected after incubation with HIS-CCA00034 or HIS-CpsG"}]}
